Broadly, the EC50 is the midpoint of the concentration-response curve.

This test addresses T1, Apelin receptor (Homo sapiens, UniProt P35414).
T1 sequence (P35414 whole entry): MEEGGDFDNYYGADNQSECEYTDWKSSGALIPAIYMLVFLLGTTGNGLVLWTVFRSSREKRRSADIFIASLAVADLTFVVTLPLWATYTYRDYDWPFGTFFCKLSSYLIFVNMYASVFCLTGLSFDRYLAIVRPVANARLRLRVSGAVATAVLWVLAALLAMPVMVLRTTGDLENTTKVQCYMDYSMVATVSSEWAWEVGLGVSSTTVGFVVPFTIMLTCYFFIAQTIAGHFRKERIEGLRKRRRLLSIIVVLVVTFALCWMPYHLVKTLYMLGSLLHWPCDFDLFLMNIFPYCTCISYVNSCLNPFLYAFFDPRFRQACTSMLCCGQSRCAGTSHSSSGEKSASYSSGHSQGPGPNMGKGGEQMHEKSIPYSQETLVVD
The test is described as follows: GTPγS Binding: The human APJ receptor was cloned by polymerase chain reaction and the gene encoding the receptor was subcloned in pFLAG-CMV-3 expression vector (Sigma, Saint Louis, Mo. USA) in-house at Amgen. A GTPγS binding assay was performed on membranes prepared from CHO cells stably expressing human APJ receptor. The optimum experimental conditions for the concentrations of GDP, MgCl2, and NaCl in the assay buffer were initially determined. The assay was performed in assay buffer [20 mM HEPES, pH 7.5, 5 mM MgCl2, and 0.1% (w/v) BSA with 200 mM NaCl, 3 μM GDP] and membranes expressing human APJ receptor/well along with WGA PS beads. The reaction was initiated by addition of 0.2 nM [35S]GTPγS in the absence or presence of various ligands and incubated at RT for 90 min. Nonspecific binding was determined in the presence of 100 μM GTPγS and was always less than 0.2% of total binding. Background: Binding of GTPγS marks nucleotide exchange on a G protein.
In the case of `COc1cccc(OC)c1-n1c(NS(=O)(=O)[C@H]2C[C@@H](O)CN(c3cc(C#N)ccn3)C2)nnc1-c1ccc(C)o1` (single isomer, unassigned), the EC50 turned out to be 0.17 nM.
As for `COc1cc[nH]c(=O)c1-n1c(NS(=O)(=O)[C@@H](C)[C@H](C)c2ncc(C)cn2)nnc1-c1ccc(C)o1` (single isomer, unassigned; form 1), the figure is 0.75 nM; as for `COc1cc[nH]c(=O)c1-n1c(NS(=O)(=O)[C@@H](C)[C@H](C)c2ncc(F)cn2)nnc1-c1ccc(C)o1` (single isomer, unassigned; form 1), 0.67 nM; as for `COc1cc[nH]c(=O)c1-n1c(NS(=O)(=O)[C@@H](C)[C@H](C)c2ncc(C)cn2)nnc1-c1ccc(C)o1` (single isomer, unassigned; form 2), 37 nM.
As for `COc1cc[nH]c(=O)c1-n1c(NS(=O)(=O)[C@@H](C)[C@H](C)c2ncc(F)cn2)nnc1-c1ccc(C)o1` (single isomer, unassigned; form 2), the figure is 51 nM.

Values taken from ChEMBL document CHEMBL5727878, “Triazole furan compounds as agonists of the APJ receptor” (2020).
